Our source for the RAGE agonist activity and RAGE antagonist activity values is US20130287890A1, “INHIBITOR OF THE PRODUCTION OF ADVANCED GLYCATION END PRODUCTS” (UENO FINE CHEMICALS INDUSTRY, LTD., priority 2012, published 2013).

Assay [1] has as its target T1, human RAGE (Homo sapiens, UniProt Q15109).
T1 construct: human RAGE plasmid (including full-length human RAGE cDNA); expressed in transfected cells; host or cells: C6 glioma cells carrying pNF-κB-Luc plasmid and human RAGE plasmid
The assay can be described thus: RAGE agonist activity of reaction samples (37° C., 42 days), NF-κB luciferase assay in C6 glioma cells. The class given is cell-based, rat. Here is the method:
Amino acid, carbohydrates and a phosphate buffer solution were charged in a 50 mL polypropylene centrifuge tube in each amount shown in Table 10, followed by sealing and stirring, and then the mixture was reacted in an incubator at 37° C. for 42 days. Next, the reactant was filtered through a 0.2 μm filter and the obtained filtrate was used as a sample. Amino acid and carbohydrates used are as follows:
(§1) Using Luciferase Assay System (manufactured by Promega Corporation), evaluation of RAGE agonist activity was performed. (Day 1) According to the methods disclosed in Diabetes, 2006, vol. 55, pp. 2510-2522, C6 glioma cells into which pNF-κB-Luc plasmid (manufactured by Stratagene Corporation) and human RAGE plasmid (including full-length human RAGE cDNA) have been introduced were seeded at 100 μL/well into a 96-well plate and cultured in a CO2 incubator until the cells were confluent. For the culture, 10% FBS/DMEM medium was used. (Day 2) The medium was removed, and after wells were washed with 300 μL of serum-free DMEM medium, 100 μL of 0.1% FBS/DMEM medium was slowly added. Then, the medium was incubated overnight in a CO2 incubator. (Day 3) The sample was diluted using the medium, and 50 μL of the diluted sample was added to each well. AGE-BSA in which AGE was formed with glyceraldehydes (50 μg/mL) was added to a control well. After incubation in a CO2 incubator for 4 hours, the medium was removed and wells were washed 2 times with 300 μL of PBS (−). Then, 25 μL of 1× lysis buffer was added on ice. After the plate was shaken for 15 seconds, 20 μL of lysate was charged in a new white plate. Further 100 μL of a luciferase assay reagent was added, and a […] was measured by a luminometer. Using 5 μl of lysate, quantitative determination of protein was also performed.
Biological proteins, carbohydrates and a phosphate buffer solution are charged in a 50 mL polypropylene centrifuge tube in each amount shown in Table 12, followed by sealing and stirring, and then the mixture was reacted in an incubator at 37° C. for 42 days. Next, the reactant was fractionated by centrifugation at 3,000 rpm for 3 hours using an ultrafiltration unit (VIVA SPIN 20, manufactured by Sartorius Corporation). The obtained low molecular weight fraction was used as a sample for determination of 3-DG, while the obtained high molecular weight fraction was used as a sample for the determination of fluorescent AGEs, pentosidine, CML, RAGE agonist activity and RAGE antagonist activity. Biological proteins and carbohydrates used are as follows:
In the same manner as in Test Example 4, except that the low molecular weight fraction prepared as mentioned above was used as a sample, quantitative determination of 3-DG was performed. In the same manner as in Test Example 4, except that the high molecular weight fraction was filtered through a 0.2 μm filter and the filtrate was used as a sample, fluorescent AGEs, pentosidine, CML, RAGE agonist activity and RAGE antagonist activity were evaluated.
Collagen, carbohydrates and a phosphate buffer solution were charged in a 50 mL polypropylene centrifuge tube in each amount shown in Table 14, followed by sealing and stirring, and then the mixture was reacted in an incubator at 37° C. for 42 days. Next, the reactant was fractionated by centrifugation at 3,000 rpm for 3 hours using an ultrafiltration unit (VIVA SPIN 20, manufactured by Sartorius Corporation). The obtained low molecular weight fraction was used as a sample for determination of 3-DG. Meanwhile, 0.4 g of a high molecular weight fraction and 8 mL of 6N hydrochloric acid were charged in an ampule and the air in the ampule was replaced with nitrogen, and then hydrolysis was performed at 110° C. for 16 hours in a heat block. After reaction, 8 mL of 5N sodium hydroxide was added, and pH was adjusted using 1N hydrochloric acid and 1N sodium hydroxide to make pH within a range of 7.2 to 7.6. Then, the solution was filtered through a 0.2 μm filter. […]

Assay [2] deals with T1, human RAGE. As to the kind of experiment: RAGE antagonist activity of reaction samples (120° C., 60 minutes) mixed with AGE-BSA, NF-κB luciferase assay in C6 glioma cells. The class given is cell-based, rat. The settings on record: Test Example 2. Here is the method: Food-derived proteins, carbohydrates and a phosphate buffer solution were charged in a 30 mL glass test tube in each amount shown in Table 6, followed by sealing and stirring, and then the mixture was reacted in an autoclave at 120° C. for 60 minutes. Next, the reactant was fractionated by centrifugation at 3,000 rpm for 3 hours using an ultrafiltration unit (VIVA SPIN 20, manufactured by Sartorius Corporation). The obtained low molecular weight fraction was used as a sample for determination of 3-DG, while the obtained high molecular weight fraction was used as a sample for the determination of fluorescent AGEs, RAGE agonist activity and RAGE antagonist activity. Food-derived proteins and carbohydrates used are as follows:
as §1, with “RAGE antagonist” for “RAGE agonist”, “diluted sample,” for “diluted sample was added to each well.”, “μg/mL) as a control, and the mixture of diluted sample and AGE-BSA were” for “μg/mL) was”, “to wells.” for “to a control well.”, “of PBS(−).” for “of PBS (−).”, “20 μl” for “20 μL”

Setting [3] is: Test Example 4, amino acid + carbohydrate, amount of protein 100 μg/mL, relative to control (AGE-BSA) = 1.
Where [4] appears, read: Test Example 5, bovine serum albumin + carbohydrate, protein 100 μg/mL, relative to control (AGE-BSA) = 1.
The mark [5] stands for this setting: Test Example 5, human serum albumin + carbohydrate, protein 100 μg/mL, relative to control (AGE-BSA) = 1.
Where [6] appears, read: Test Example 5, γ-globulin + carbohydrate, protein 10 μg/mL, relative to control (AGE-BSA) = 1.
Where [7] appears, read: Test Example 6, collagen + carbohydrate, protein 10 μg/mL, relative to control (AGE-BSA) = 1.
The mark [8] stands for this setting: gliadin + carbohydrate, mixture of sample and AGE-BSA, protein 0.1 μg/mL, relative to control (AGE-BSA) = 1.
[9] abbreviates: lactalbumin + carbohydrate, mixture of sample and AGE-BSA, protein 10 μg/mL, relative to control (AGE-BSA) = 1.
Where [10] appears, read: lactic casein + carbohydrate, mixture of sample and AGE-BSA, protein 1 μg/mL, relative to control (AGE-BSA) = 1.
The mark [11] stands for this setting: ovalbumin + carbohydrate, mixture of sample and AGE-BSA, protein 10 μg/mL, relative to control (AGE-BSA) = 1.
The mark [12] stands for this setting: soybean casein + carbohydrate, mixture of sample and AGE-BSA, protein 0.1 μg/mL, relative to control (AGE-BSA) = 1.

T1 sequence (Q15109 23-404): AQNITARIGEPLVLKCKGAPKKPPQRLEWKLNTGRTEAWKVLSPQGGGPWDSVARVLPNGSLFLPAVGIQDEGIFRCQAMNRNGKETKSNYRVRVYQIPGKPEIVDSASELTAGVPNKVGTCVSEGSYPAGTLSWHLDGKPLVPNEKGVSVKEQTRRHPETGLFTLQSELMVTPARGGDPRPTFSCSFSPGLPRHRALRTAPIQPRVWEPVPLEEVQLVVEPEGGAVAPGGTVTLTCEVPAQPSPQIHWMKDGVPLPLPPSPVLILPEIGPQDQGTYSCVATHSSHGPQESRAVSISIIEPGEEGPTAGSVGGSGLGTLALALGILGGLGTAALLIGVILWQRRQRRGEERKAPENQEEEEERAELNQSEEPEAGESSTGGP

With `O=C(CO)[C@@H](O)[C@H](O)[C@H](O)CO` [Fructose], the RAGE agonist activity worked out at 0.08 on human RAGE [1] (setting [3]); 0.33 on human RAGE [1] (setting [4]); 0.02 at human RAGE [1] (setting [5]); 0.04 at human RAGE [1] (setting [6]); 0.58 on human RAGE [1] (setting [7]).
Take `O=C[C@H](O)[C@@H](O)[C@H](O)[C@H](O)CO` [Glucose]: the RAGE agonist activity was determined as 0.06 at human RAGE [1] (setting [3]); 0.37 at human RAGE [1] (setting [4]); 0.01 on human RAGE [1] (setting [5]); 0.06 on human RAGE [1] (setting [6]); 0.45 on human RAGE [1] (setting [7]).
As to `OC[C@@H](O)[C@@H](O[C@H]1O[C@H](CO)[C@@H](O)[C@H](O)[C@H]1O)[C@H](O)[C@@H](O)CO` [Maltitol], the RAGE antagonist activity is 0.90 on human RAGE [2] (setting [8]); 0.54 at human RAGE [2] (setting [9]); 1.42 on human RAGE [2] (setting [10]); 1.74 on human RAGE [2] (setting [11]); 0.99 at human RAGE [2] (setting [12]); “decreased” on human RAGE [2] (test sections 2 and 5 (ovalbumin, lactalbumin) compared with sections 1 and 4 containing sucrose).
`OC[C@@H](O)[C@@H](O)[C@H](O)[C@@H](O)CO` [Sorbitol]: the RAGE agonist activity was 0.07 on human RAGE [1] (setting [3]); “decreased” at human RAGE [1] (Test Example 4, amino acid, compared with the test section 2 containing fructose); 0.24 on human RAGE [1] (setting [4]); “decreased” at human RAGE [1] (Test Example 5, bovine serum albumin, human serum albumin, γ-globulin, compared with sections containing fructose); “decreased” at human RAGE [1] (Test Example 5, bovine serum albumin, human serum albumin, γ-globulin, compared with sections containing glucose); 0.02 at human RAGE [1] (setting [5]). Further, the RAGE agonist activity is 0.06 on human RAGE [1] (setting [6]); 0.27 on human RAGE [1] (setting [7]); “decreased” on human RAGE [1] (Test Example 6, collagen, compared with sections containing glucose and fructose).
Turning to `OC[C@H]1O[C@@](CO)(O[C@H]2O[C@H](CO)[C@@H](O)[C@H](O)[C@H]2O)[C@@H](O)[C@@H]1O` [Sucrose, reference compound], the RAGE antagonist activity at human RAGE [2] (setting [8]) came out at 1.00; on human RAGE [2] (setting [9]), 0.58; on human RAGE [2] (setting [10]), 1.50; at human RAGE [2] (setting [11]), 1.80; on human RAGE [2] (setting [12]), 1.01.
